Source: patent US8232283B2, “Raf inhibitors” (Forma Therapeutics, Inc., priority 2008, dated 2012)

How the values were obtained:
[1] = test system: HT-29 [B-Raf V600E mutant]; test: Anti-proliferative activity, SRB assay, 72 hours; type: cell-based; conditions: Homo sapiens, read-out: CELLULAR IC50 [μM] HT-29 [B-Raf V600E mutant]
Procedure: We observed the surprising finding that compounds of the invention were useful in inhibiting proliferation of HT-29 tumor cells (see Table 3).
(§1) Cells were exposed to the test compounds at various concentrations appropriate to determine an IC50, for 72 hours, and cell proliferation was measured using the SRB assay according to Shekan et al (J Natl Cancer Inst (1990) 82, 1107-112) in order to estimate the IC50 values shown in Table 3.
(§2) Briefly, cells were plated in 96 well dishes 24 hours prior to compound addition at the densities specified in Table 11.1.
(§3) The assay was terminated with the addition of ice cold 10% TCA after growth medium has been removed and the plates were incubated over night at 4° C. The plates were then washed 5 times with water and 100 μl of a Sulforhodamine B solution ([…]) was added to each well. The plates were then incubated for 10 minutes at room temperature before removal of unbound dye by washing with 1% acetic acid. The bound dye was solubilized with 10 mM Trizma base and the absorbance read at OD520.
(§4) Inhibitory activity of the compounds was calculated as % inhibition of cell proliferation compared to cells treated with the solvent (DMSO).

[2] = test system: A-431 [B-Raf wildtype]; test: Anti-proliferative activity, SRB assay, 72 hours; type: cell-based; conditions: Homo sapiens, read-out: CELLULAR IC50 [μM] A-431 [B-Raf wildtype]
Procedure: as §1, §2, §3, §4

Row | SMILES | IC50 [1] [µM] | IC50 [2] [µM]
1 | COn1c(=O)c(-c2cc(NC(=O)c3ccc(Cl)c(C(F)(F)F)c3)ccc2Cl)cc2cnc(NCCN(C)C)nc21 [Compound 3, 4-Chloro-N-{4-chloro-3-[2-(2-dimethylamino-ethylamino)-8-methoxy-7-oxo-7,8-dihydro-pyrido[2,3-d]pyrimidin-6-yl]-phenyl}-3-trifluoromethyl-benzamide] | < 5 | > 10
2 | COn1c(=O)c(-c2ccc(NC(=O)c3ccc(Cl)c(C(F)(F)F)c3)cc2Cl)cc2cnc(NCCN(C)C)nc21 [Compound 6, 4-Chloro-N-{3-chloro-4-[2-(2-dimethylamino-ethylamino)-8-methoxy-7-oxo-7,8-dihydro-pyrido[2,3-d]pyrimidin-6-yl]-phenyl}-3-trifluoromethyl-benzamide] | < 5 | < 10
3 | COn1c(=O)c(-c2cc(NC(=O)c3cc(Cl)nc(Cl)c3)ccc2Cl)cc2cnc(NCCN(C)C)nc21 [Compound 7, 2,6-Dichloro-N-(4-chloro-3-(2-(2-(dimethylamino)ethylamino)-8-methoxy-7-oxo-7,8-dihydropyrido[2,3-d]pyrimidin-6-yl)phenyl)-isonicotinamide] | < 10 | > 10
4 | COn1c(=O)c(-c2cc(NC(=O)c3cc(C(C)(C)C)n[nH]3)ccc2Cl)cc2cnc(NCCN(C)C)nc21 [Compound 9, 5-tert-Butyl-2H-pyrazole-3-carboxylic acid {4-chloro-3-[2-(2-dimethylamino-ethylamino)-8-methoxy-7-oxo-7,8-dihydro-pyrido[2,3-d]pyrimidin-6-yl]-phenyl}-amide] | > 10 | > 10
5 | COn1c(=O)c(-c2cc(NC(=O)c3ccc(C(F)(F)F)c(F)c3)ccc2Cl)cc2cnc(NCCN(C)C)nc21 [Compound 12, N-{4-Chloro-3-[2-(2-dimethylamino-ethylamino)-8-methoxy-7-oxo-7,8-dihydro-pyrido[2,3-d]pyrimidin-6-yl]-phenyl}-3-fluoro-4-trifluoromethyl-benzamide] | < 10 | > 10
6 | COn1c(=O)c(-c2cc(NC(=O)c3cc4ccccc4n3C)ccc2Cl)cc2cnc(NCCN(C)C)nc21 [Compound 13, 1-Methyl-1H-indole-2-carboxylic acid {4-chloro-3-[2-(2-dimethylamino-ethylamino)-8-methoxy-7-oxo-7,8-dihydro-pyrido[2,3-d]pyrimidin-6-yl]-phenyl}-amide] | < 10 | > 10
7 | COc1ccc(C(F)(F)F)cc1C(=O)Nc1ccc(Cl)c(-c2cc3cnc(NCCN(C)C)nc3n(OC)c2=O)c1 [Compound 14, N-{4-Chloro-3-[2-(2-dimethylamino-ethylamino)-8-methoxy-7-oxo-7,8-dihydro-pyrido[2,3-d]pyrimidin-6-yl]-phenyl}-2-methoxy-5-trifluoromethyl-benzamide] | < 5 | > 10
8 | COc1cc(C(F)(F)F)ccc1C(=O)Nc1ccc(Cl)c(-c2cc3cnc(NCCN(C)C)nc3n(OC)c2=O)c1 [Compound 15, N-{4-Chloro-3-[2-(2-dimethylamino-ethylamino)-8-methoxy-7-oxo-7,8-dihydro-pyrido[2,3-d]pyrimidin-6-yl]-phenyl}-2-methoxy-4-trifluoromethyl-benzamide] | < 5 | > 10
9 | COn1c(=O)c(-c2cc(NC(=O)c3ccc(C(F)(F)F)cc3F)ccc2Cl)cc2cnc(NCCN(C)C)nc21 [Compound 20] | > 10 | > 10
10 | COc1ccc(C(=O)Nc2ccc(Cl)c(-c3cc4cnc(NCCN(C)C)nc4n(OC)c3=O)c2)cc1Cl [Compound 21, 3-Chloro-N-{4-chloro-3-[2-(2-dimethylamino-ethylamino)-8-methoxy-7-oxo-7,8-dihydro-pyrido[2,3-d]pyrimidin-6-yl]-phenyl}-4-methoxy-benzamide] | < 5 | > 10
11 | COn1c(=O)c(-c2cc(NC(=O)c3cc(Cl)cc(Cl)c3)ccc2Cl)cc2cnc(NCCN(C)C)nc21 [Compound 22, 3,5-Dichloro-N-{4-chloro-3-[2-(2-dimethylamino-ethylamino)-8-methoxy-7-oxo-7,8-dihydro-pyrido[2,3-d]pyrimidin-6-yl]-phenyl}-benzamide] | < 5 | > 10
12 | COn1c(=O)c(-c2cc(NC(=O)Cc3cccc(C(F)(F)F)c3)ccc2Cl)cc2cnc(NCCN(C)C)nc21 [Compound 25, N-{4-Chloro-3-[2-(2-dimethylamino-ethylamino)-8-methoxy-7-oxo-7,8-dihydro-pyrido[2,3-d]pyrimidin-6-yl]-phenyl}-2-(3-trifluoromethyl-phenyl)-acetamide] | < 5 | > 10
13 | COn1c(=O)c(-c2cc(NC(=O)c3cc(C(F)(F)F)ccc3Cl)ccc2Cl)cc2cnc(NCCN(C)C)nc21 [Compound 29, 2-Chloro-N-{4-chloro-3-[2-(2-dimethylamino-ethylamino)-8-methoxy-7-oxo-7,8-dihydro-pyrido[2,3,-d]pyrimidin-6-yl]-phenyl}-5-trifluoromethyl-benzamide] | < 10 | > 10
14 | COn1c(=O)c(-c2cc(NC(=O)c3ccccc3)ccc2Cl)cc2cnc(NCCN(C)C)nc21 [Compound 33, N-{4-Chloro-3-[2-(2-dimethylamino-ethylamino)-8-methoxy-7-oxo-7,8-dihydro-pyrido[2,3-d]pyrimidin-6-yl]-phenyl}-benzamide] | > 10 | > 10
15 | COn1c(=O)c(-c2cc(NC(=O)c3ccc(C(F)(F)F)cc3)ccc2Cl)cc2cnc(NCCN(C)C)nc21 [Compound 34, N-{4-Chloro-3-[2-(2-dimethylamino-ethylamino)-8-methoxy-7-oxo-7,8-dihydro-pyrido[2,3-d]pyrimidin-6-yl]-phenyl}-4-trifluoromethyl-benzamide] | < 10 | > 10
16 | COn1c(=O)c(-c2cc(NC(=O)c3cc(C(F)(F)F)cc(C(F)(F)F)c3)ccc2Cl)cc2cnc(NCCN(C)C)nc21 [Compound 35, N-{4-Chloro-3-[2-(2-dimethylamino-ethylamino)-8-methoxy-7-oxo-7,8-dihydro-pyrido[2,3-d]pyrimidin-6-yl]-phenyl}-3,5-bis-trifluoromethyl-benzamide] | < 5 | > 10
17 | COn1c(=O)c(-c2cc(NC(=O)c3ccccc3Cl)ccc2Cl)cc2cnc(NCCN(C)C)nc21 [Compound 36, 2-Chloro-N-{4-chloro-3-[2-(2-dimethylamino-ethylamino)-8-methoxy-7-oxo-7,8-dihydro-pyrido[2,3-d]pyrimidin-6-yl]-phenyl}-benzamide] | > 10 | > 10
18 | COn1c(=O)c(-c2cc(NC(=O)c3ccc(Cl)cc3)ccc2Cl)cc2cnc(NCCN(C)C)nc21 [Compound 38, 4-Chloro-N-{4-chloro-3-[2-(2-dimethylamino-ethylamino)-8-methoxy-7-oxo-7,8-dihydro-pyrido[2,3-d]pyrimidin-6-yl]-phenyl}-benzamide] | > 10 | > 10
19 | COn1c(=O)c(-c2cc(NC(=O)c3nc4ccc(F)cc4[nH]3)ccc2Cl)cc2cnc(NCCN(C)C)nc21 [Compound 40, 6-Fluoro-1H-benzoimidazole-2-carboxylic acid {4-chloro-3-[2-(2-dimethylamino-ethylamino)-8-methoxy-7-oxo-7,8-dihydro-pyrido[2,3-d]pyrimidin-6-yl]-phenyl}-amide] | > 10 | > 10
20 | COn1c(=O)c(-c2cc(NC(=O)Nc3ccc(Oc4ccccc4)cc3)ccc2Cl)cc2cnc(NCCN(C)C)nc21 [Compound 45, 1-{4-Chloro-3-[2-(2-dimethylamino-ethylamino)-8-methoxy-7-oxo-7,8-dihydro-pyrido[2,3-d]pyrimidin-6-yl]-phenyl}-3-(4-phenoxy-phenyl)-urea] | < 5 | < 10
21 | COn1c(=O)c(-c2cc(NC(=O)Nc3ccc(Cl)cc3)ccc2Cl)cc2cnc(NCCN(C)C)nc21 [Compound 46, 1-{4-Chloro-3-[2-(2-dimethylamino-ethylamino)-8-methoxy-7-oxo-7,8-dihydro-pyrido[2,3-d]pyrimidin-6-yl]-phenyl}-3-(4-chloro-phenyl)-urea] | < 5 | > 10
22 | COn1c(=O)c(-c2cc(NC(=O)Nc3cccc(C(F)(F)F)c3F)ccc2Cl)cc2cnc(NCCN(C)C)nc21 [Compound 48, 1-{4-Chloro-3-[2-(2-dimethylamino-ethylamino)8-methoxy-7-oxo-7,8-dihydro-pyrido[2,3-d]pyrimidin-6-yl]-phenyl}-3-(2-fluoro-3-trifluoromethyl-phenyl)-urea] | < 5 | > 10
23 | COn1c(=O)c(-c2cc(NC(=O)Nc3cc(C(F)(F)F)ccc3F)ccc2Cl)cc2cnc(NCCN(C)C)nc21 [Compound 49, 1-{4-Chloro-3-[2-(2-dimethylamino-ethylamino)-8-methoxy-7-oxo-7,8-dihydro-pyrido[2,3-d]pynmidin-6-yl]-phenyl}-3-(2-fluoro-5-trifluoromethyl-phenyl)-urea] | < 5 | > 10
24 | COc1cc(C(F)(F)F)ccc1C(=O)Nc1ccc(-c2cc3cnc(NCCN(C)C)nc3n(OC)c2=O)c(Cl)c1 [Compound 51, N-{3-Chloro-4-[2-(2-dimethylamino-ethylamino)-8-methoxy-7-oxo-7,8-dihydro-pyrido[2,3-d]pyrimidin-6-yl]-phenyl}-2-methoxy-4-trifluoromethyl-benzamide] | < 5 | < 10
